Laboratory results taken from patent US7445897B2, “Sequence variants of multi-drug resistance genes, MDR1 and MRP1, and methods for assessment of drug penetration and disposition” (University of Washington, priority 2004, dated 2008).
Where two headings read alike, the source gives them in different places.

Assays:
MDR1 (G1199A variant) = test: in vitro; settings: human
[1] = system: HEK negative control cells; test: Cytotoxic drug sensitivity assay (MTS); format: cell-based, human; settings: Homo sapiens, 72 h, HEK Control; 72hours, MTS; read-out: EC50 (Mean ± S.D.)
[2] = system: recombinant MDR1wt LLC-PK1 cells; test: Cytotoxic drug sensitivity assay (3H-thymidine); format: cell-based, porcine
Method: (§1) On the second day of the incubation, 1 μCi of ^3H-thymidine (specific activity: 81.1 Ci/mmole) was added to each well and incubated overnight. Cells were harvested on day 3 with a cell harvester.
(§2) Dose response analysis was performed for doxorubicin, vincristine and vinblastine. […] TRANSEPITHELIAL TRANSPORT

LLC-PK1 control cells [3] = test: Cytotoxic drug sensitivity assay (3H-thymidine); format: cell-based, porcine; settings: Sus scrofa, 72 h, 3 days with drug
Method: as §1, §2

[4] = system: recombinant MDR11199 LLC-PK1 cells; test: Cytotoxic drug sensitivity assay (3H-thymidine); format: cell-based, porcine
Method: as §1, §2

MDR1 (G1199T variant) = test: Cytotoxic drug sensitivity assay (MTS); format: cell-based, human; settings: human, HEK293 cells recombinantly expressing MDR1 G1199T; HEK MDR1 G1199T; 72hours, MTS; read-out: EC50 (Mean ± S.D.)
MDR1 (wild type) = test: Cytotoxic drug sensitivity assay (MTS); format: cell-based, human; settings: human, HEK293 cells recombinantly expressing MDR1 wild type, HEK MDR1 WT; 72hours, MTS; read-out: EC50 (Mean ± S.D.)
[5] = system: P-gp (MDR11199, G1199A) in recombinant LLC-PK1 cells; settings: human, LLC-PK1
LLC-PK1 control cells [6] = system: LLC-PK1 control cells
[7] = van Heeswijk et al. 2001; cited from earlier work
LLC-PK1 control cells [8] = test: Intracellular uptake of HIV protease inhibitors; format: in vitro ADME, porcine
[9] = protease inhibitor + GF120918 (1 μM)

Row | SMILES | EC50 [1] | EC50 at 72 h (MDR1 (G1199T variant)) | EC50 at 72 h (MDR1 (wild type)) | decrease in apical-to-basolateral flux in MDR11199 cells compared to MDR1wt cells [5] | Rate of transfer dQ/dt ± s.d., A → B (LLC-PK1 control cells [6]; [9]) | Rate of transfer dQ/dt ± s.d., B → A (LLC-PK1 control cells [6]; [9]) | Rate of transfer dQ/dt ± s.d., A → B (LLC-PK1 control cells [6]; protease inhibitor alone, 5 μM) | Rate of transfer dQ/dt ± s.d., B → A (LLC-PK1 control cells [6]; protease inhibitor alone, 5 μM) | oral bioavailability in systemic circulation [7] | also measured
1 | COc1cccc2c1C(=O)c1c(O)c3c(c(O)c1C2=O)C[C@@](O)(C(=O)CO)C[C@@H]3O[C@H]1C[C@H](N)[C@H](O)[C@H](C)O1 [doxorubicin] | 45.5 ± 25.1 nM | 383 ± 39 nM | 1110 ± 112 nM | – | – | – | – | – | – | EC50 (MDR1 (G1199A variant)): 2180 ± 361 nM; EC50 fold-change from control ([2]; MDR1wt vs LLC-PK1 control): 4.53 fold; EC50 ([2]; Sus scrofa, 72 h, MDR1wt LLC-PK1 cells, 3 days with drug): 155 ± 68 nM; EC50 (LLC-PK1 control cells [3]): 34.2 ± 3.1 nM; EC50 fold-change from control ([4]; MDR11199 vs LLC-PK1 control): 3.51 fold; EC50 ([4]; Sus scrofa, 72 h, MDR11199 LLC-PK1 cells, 3 days with drug): 120 ± 32 nM
2 | CC(C)(C)NC(=O)[C@@H]1CN(Cc2cccnc2)CCN1C[C@@H](O)C[C@@H](Cc1ccccc1)C(=O)N[C@H]1c2ccccc2C[C@H]1O [indinavir] | – | – | – | 1.9 fold | 4.26 ± 0.25 | 5.99 ± 0.11 | 7.17 ± 0.03 | 6.69 ± 0.21 | 70% | –
3 | Cc1cccc(C)c1OCC(=O)N[C@@H](Cc1ccccc1)[C@@H](O)C[C@H](Cc1ccccc1)NC(=O)[C@H](C(C)C)N1CCCNC1=O [lopinavir] | – | – | – | 1.6 fold | 8.48 ± 0.16 | – | 9.21 ± 0.24 | – | – | –
4 | Cc1c(O)cccc1C(=O)N[C@@H](CSc1ccccc1)[C@H](O)CN1C[C@H]2CCCC[C@H]2C[C@H]1C(=O)NC(C)(C)C [nelfinavir] | – | – | – | – | – | – | – | – | 70-80% | –
5 | CC(=O)O[C@H]1C(=O)[C@@]2(C)[C@H]([C@H](OC(=O)c3ccccc3)[C@]3(O)C[C@H](OC(=O)[C@H](O)[C@@H](NC(=O)c4ccccc4)c4ccccc4)C(C)=C1C3(C)C)[C@]1(OC(C)=O)CO[C@@H]1C[C@@H]2O [paclitaxel] | 2.67 ± 0.13 nM | 42.7 ± 12.7 nM | 128 ± 50 nM | – | – | – | – | – | – | –
6 | CC(C)c1nc(CN(C)C(=O)N[C@H](C(=O)N[C@@H](Cc2ccccc2)C[C@H](O)[C@H](Cc2ccccc2)NC(=O)OCc2cncs2)C(C)C)cs1 [ritonavir] | – | – | – | 2.3 fold | 6.46 ± 0.69 | 9.60 ± 0.75 | 6.46 ± 0.94 | 11.0 ± 0.5 | 60-80% | increase in basolateral-to-apical efflux in MDR11199 cells compared to MDR1wt [5]: 1.2 fold; Km (LLC-PK1 control cells [8]): 250 nM
